Two compounds from US20070225335A1, “Pyrazole Derivatives for Treating Condit Ions Mediated by Activation of the Adeno Sine A2B or A3 Receptor” (priority 2004, published 2007) can be followed below.

In this assay the target is T1, human adenosine A2b receptor (Homo sapiens, UniProt P29275).
T1 construct: expressed in transfected cells; host or cells: CHO (Chinese Hamster Ovary) cells co-transfected with the reporter plasmid pCRE-LUCI
T1 sequence (P29275 1-332): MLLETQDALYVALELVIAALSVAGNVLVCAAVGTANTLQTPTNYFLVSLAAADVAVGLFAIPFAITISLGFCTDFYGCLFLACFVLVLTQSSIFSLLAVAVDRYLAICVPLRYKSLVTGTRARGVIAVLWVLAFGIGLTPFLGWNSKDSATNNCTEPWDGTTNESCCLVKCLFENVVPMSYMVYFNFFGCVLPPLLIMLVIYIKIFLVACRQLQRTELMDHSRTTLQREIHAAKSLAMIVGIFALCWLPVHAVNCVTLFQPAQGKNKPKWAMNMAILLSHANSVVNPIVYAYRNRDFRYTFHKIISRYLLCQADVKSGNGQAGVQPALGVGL
The experiment in a line: Adenosine A2b receptor reporter gene assay (luciferase, CHO-A2b cells, NECA agonist). It counts as cell-based. The following applies: CHO cells with pCRE-LUCI and human A2b receptor; shift of NECA concentration-response curve; antagonist at 100 nM or 1 μM; KB=[antagonist]/(concentration ratio−1). The method, then:
Adenosine A2b Receptor Reporter Gene Assay a) Culturing of Chinese Hamster Ovary (CHO) A2b Cell Line
CHO cells transfected with a Luciferase-expressing reporter plasmid (pCRE-LUCI) and with a plasmid carrying the human adenosine A2b receptor structural gene (pA2bRCV) are routinely cultured in Dulbecco's Modified Eagle Medium (DMEM)—supplemented with 10% v/v fetal calf serum (FCS), 2 mM L-glutamine, 0.4 mg/ml L-proline, 1 nM sodium selenite, 0.5 mg/ml Hygromycin B and 1 mg/ml Geneticin—at 37° C., 5% CO2 and 100% humidity. The cells are left to grow to confluence for 4-5 days. The cells obtained are passaged using trypsin/EDTA and split at a ratio of 1 in 5. […]
b) Preparation of cells for assay […]
5′-N-ethylcarboxamidoadenosine (NECA), an adenosine A2b agonist, is prepared as a […] solution in DMSO and then diluted to 100 μM with Assay Buffer. […] 100 μl of Steady-Glo, a Luciferase assay substrate from Promega, is added to all wells to lyse the cells and generate luminescence in proportion to the amount of Lucifrease produced. The plates are left for a minimum of 5 minutes before being read on the luminescence program of a Topcount NXT microplate scintillation counter (ex Packard). […]
For orientation: Reporter assays use an easily measured gene product as a stand-in for the process of interest.

For orientation: Kb means the affinity of an antagonist, worked out from how it opposes an agonist.

On to `N#Cc1ccc(NC(=O)c2cnn(-c3cccc(F)c3)c2-c2ccncc2)cc1` [Example 4, 1-(3-Fluoro-phenyl)-5-pyridin-4-yl-1H-pyrazole4-carboxylic acid (4-cyano-phenyl)-amide], for which the Kb was 139 nM.

Take `O=C(Nc1cccnc1)c1cc(-c2ccncc2)n(-c2cccc(F)c2)n1` [Example 33, 1-(3-Fluoro-phenyl)-5-pyridin-4-yl-1H-pyrazole-3-carboxylic acid pyridin-3-ylamide]: the Kb turned out to be 188 nM.
